MIC data for 8 molecules are collected here from ChEMBL document CHEMBL5143540, “Design, synthesis and biological evaluation of nitrofuran-1,3,4-oxadiazole hybrids as new antitubercular agents” (Bioorg Med Chem, 2022).

Values after ≈ are worked out from the molar mass of the structure shown. Some results are limits rather than exact numbers.

For the assay, the system named is Mycobacterium tuberculosis. In words: Antitubercular activity against multi-drug resistant Mycobacterium tuberculosis 16833 assessed as reduction in bacterial growth incubated for 7 days by Alamar blue assay. The class given is functional. To be noted: Mycobacterium tuberculosis, 16833, 168 h; time 7 day. Background: Alamar Blue is a resazurin reagent that responds to reducing activity.
Usually MIC stands for the smallest concentration in the dilution series that meets the test's criterion for growth inhibition. With `O=C(Nc1nnc(-c2ccc(Br)cc2)o1)c1ccc([N+](=O)[O-])o1`, the minimal inhibitory concentration (MIC) is 1.44 µg/mL (≈ 3.8 µM). The result for `CC(C)(C)c1ccc(-c2nnc(-c3ccc([N+](=O)[O-])o3)o2)cc1` reads over 32 µg/mL.

Consider `CC(C)(C)c1ccc(-c2nnc(CNC(=O)c3ccc([N+](=O)[O-])o3)o2)cc1`, for which the MIC came out at 1.85 µg/mL (≈ 5 µM).

For the molecule `NNC(=O)c1ccncc1` [ISONIAZID], the minimal inhibitory concentration (MIC) was over 32 µg/mL. The result for `CO[C@H]1/C=C/O[C@@]2(C)Oc3c(C)c(O)c4c(O)c(c(/C=N/N5CCN(C)CC5)c(O)c4c3C2=O)NC(=O)/C(C)=C\C=C\[C@H](C)[C@H](O)[C@@H](C)[C@@H](O)[C@@H](C)[C@H](OC(C)=O)[C@@H]1C` [RIFAMPIN] reads over 32 µg/mL; that for `O=C(NCc1nnc(-c2ccc(C(F)(F)F)cc2)o1)c1ccc([N+](=O)[O-])o1`, 1.93 µg/mL (≈ 5.04 µM); that for `COc1ccc(-c2nnc(CNC(=O)c3ccc([N+](=O)[O-])o3)o2)cc1`, 3.58 µg/mL (≈ 10.4 µM). In the case of `O=C(NCc1nnc(-c2ccc(OC(F)(F)F)cc2)o1)c1ccc([N+](=O)[O-])o1` it was 1.96 µg/mL (≈ 4.91 µM).
